Where a name gives a salt, the structure may show the parent alone.
Key:
[1] = tested on: human melanoma cells (MeWo, MeWo-LM2, A375-LM3, HT-144, SK-Mel-334.2); assay: tail-vein lung metastatic colonization assay; type: in vivo, mouse; conditions: for reduction in lung metastatic colonization by MeWo cells: orally administered, immunocompromised mice
Procedure: After 8 hours, the transfection media was replaced with fresh media. After 48 hours, 1×10^5 cells were injected intravenously into NOD-SCID mice to assess lung metastatic colonization or through intracardiac injection into athymic nude mice to assess systemic metastasis. For cell invasion and endothelial recruitment in vitro assays, the cells were used 96 hours post-transfection.
Melanoma cells used for in vivo metastasis assays were transduced with a stably expressed retroviral construct encoding a luciferase reporter gene (Ponomarev et al., 2004), allowing us to monitor the in vivo progression of melanoma cells by bioluminescence imaging. The following numbers of melanoma cells, resuspended in 100 μL of PBS, were injected intravenously via the tail-vein: 4×10^4 MeWo cells, 2.5×10^5 HT-144 cells, 2×10^5 SK-Mel-334.2 cells, 5×10^4B 16F10 cells, and 1×10^5YUMM cells. The MeWo, HT-144, and SK-Mel-334.2 cells were injected into 6-8 week-old sex-matched NOD scid mice, while the B16F10 and YUMM cells were injected into 6-8 week-old sex-matched C57BL/6 mice. In all experiments assessing at the effects of GW3965 on metastasis formation, mice were pre-treated on a control diet or a GW3965-supplemented diet (20 mg/kg) for 10 days. To assess the effect of GW3965 treatment on brain metastasis, 1×10^5 MeWo brain-metastatic derivatives were injected intracardially into athymic nude mice. Immediately following injection, mice were randomly assigned to a control diet or GW3965-supplemented diet (100 mg/kg). To determine whether oral delivery of GW3965 can inhibit the progression of incipient metastasis, NOD Scid mice were intravenously injected with 4×10^4MeWo cells and the cells were allowed to colonize the lungs for 42 days, after which mice were blindedly assigned to a control diet or a GW3965-supplemented diet (100 mg/kg) treatment.

[2] = tested on: ApoE promoter fused to ME.1 or ME.2 in MeWo cells; assay: ApoE promoter activity assay (luciferase reporter); type: cell-based, human; conditions: 1 μM, 24 hours
Description: The ApoE promoter, consisting of a sequence spanning 980 base pairs upstream and 93 base pairs downstream of the ApoE gene, was cloned into a pGL3-Basic vector (E1751, Promega Corporation, Madison, Wis.) upstream of the firefly luciferase gene using NheI and SacI restriction enzymes. Then, multi-enhancer elements 1 (ME.1) and 2 (ME.2) were cloned directly upstream of the ApoE promoter using MluI and […] restriction enzymes. To assess ApoE promoter- and ME.1/ME.2-driven transcriptional activation by LXR agonists, 5×10^4 MeWo cells were seeded into a 24-well plate. The following day, 100 ng of pGL3-ME.1/ME.2-ApoE promoter construct and 2 ng of pRL-CMV renilla luciferase construct (E2261, Promega) were co-transfected into cells in the presence of DMSO, GW3965, or T0901317 at 1 μM, each condition in quadruplicate. To assess transcriptional activation by LXRα or LXRβ, 5×10^4 MeWo cells expressing a control shRNA or shRNA targeting LXRα or LXRβ were seeded into a 24-well plate. […] After 24 hours, cells were lysed, and cell lysate was analyzed for firefly and renilla luciferase activity using the Dual Luciferase Assay System (E1960, Promega) and a Bio-Tek Synergy NEO Microplate Reader. Firefly luciferase signal was normalized to renilla luciferase signal and all data are expressed relative to the luciferase activity ratio measured in the DMSO-treated control cells.

[3] = tested on: B16F10 mouse melanoma cells; assay: subcutaneous B16F10 tumor growth in mice; type: in vivo; conditions: for primary tumor growth in vivo (FIG. 21): mouse; for suppression of tumor growth by B16F10 cells: 20 mg/kg, tumors 5-10 mm3 at start, immunocompetent mice
[4] = tested on: ApoE expression in systemic tissues; assay: systemic ApoE expression in mouse tissues (western blot, qRT-PCR); type: in vivo; conditions: 10 days; for ApoE protein expression in systemic adipose, lung, and brain tissues: chow 20 mg/kg; for ApoE transcript levels in circulating white blood cells: diet 20 mg/kg
Procedure: Mouse lung and brain tissue samples were homogenized on ice in RIPA buffer (Sigma-Aldrich) supplemented with protease inhibitors (Roche). Mouse adipose tissue was homogenized on ice in TNET buffer (1.5 mM Tris pH 7.5, 150 mM NaCl, 2 mM EDTA 1% triton, protease inhibitors). Total protein lysate (2 μg) was separated by SDS-PAGE, transferred to PVDF membrane, and blotted with an anti-mouse ApoE (ab20874, Abcam) and anti-tubulin α/β (2148, Cell Signaling) antibodies. RNA was extracted from whole cell lysates using the Total RNA Purification Kit (17200, Norgen, Thorold, Canada). 600 ng of total RNA was then reverse transcribed into cDNA using the cDNA First-Strand Synthesis Kit (18080-051, Invitrogen), and quantitative real-time PCR amplification was performed as previously described (Pencheva et al., 2012) using an ABI Prism 7900HT Real-Time PCR System (Applied Biosystems, Austin, Tex.). Each PCR reaction was carried out in quadruplicates. Gene expression was normalized to GAPDH, which was used as an endogenous control.

[5] = tested on: extracellular ApoE protein from melanoma cells; assay: ApoE ELISA in conditioned media; type: cell-based, human; conditions: MeWo cells, 1 μM, 72 hours
Procedure: Extracellular ApoE levels in serum-free conditioned media from melanoma cells treated with DMSO, GW3965, or T0901317 (1 μM each) were quantified using the ApoE ELISA kit (Innovative Research) at 72 hours following treatment.

| Compound | suppression of metastatic colonization ([1]; MeWo-LM2 cells pre-incubated for 24 hours at 100 μg/mL before injection) | activity of luciferase reporter containing the ApoE promoter fused to ME.1 or ME.2 [2] | primary tumor growth in vivo (FIG. 21) [3] | suppression of tumor growth by B16F10 cells ([3]; oral) | reduction in lung metastatic colonization by MeWo cells ([1]; chow 20 mg/kg) | ApoE protein expression in systemic adipose, lung, and brain tissues [4] | ApoE transcript levels in circulating white blood cells [4] | levels of secreted ApoE protein [5] | suppression of tumor growth in mice genetically inactivated for ApoE ([3]; ApoE−/− mice, diet 20 mg/kg) | tumor growth inhibition upon LXRα inactivation ([3]; LXRα−/− mice, diet 20 mg/kg) | ability to suppress melanoma tumor growth upon genetic ablation of systemic LXRβ ([3]; LXRβ−/− mice, diet 20 mg/kg) | reduction in tumor growth by B16F10 cells ([3]; oral, 100 mg/kg) | reduction in growth of established large B16F10 tumors ([3]; tumors ~150 mm3 at start, chow 150 mg/kg) | reduction in metastatic colonization capacity of pre-treated cells ([1]; MeWo cells pre-treated 1 μM for 48 hours) | survival times following metastatic colonization ([1]; chow 20 mg/kg) | in vivo melanoma metastasis (lung, bioluminescence) ([1]; chow diet 20 mg/kg, tail-vein injection of parental MeWo cells) | metastatic colonization by HT-144 and SK-Mel-334.2 lines ([1]; diet 20 mg/kg) | suppression of colonization by incipient lung metastases ([1]; diet 100 mg/kg from d42) | number of macroscopic metastatic nodules formed ([1]; diet 100 mg/kg, d77) |
| --- | --- | --- | --- | --- | --- | --- | --- | --- | --- | --- | --- | --- | --- | --- | --- | --- | --- | --- | --- |
| recombinant ApoE3: recombinant human ApoE3 (4696, BioVision) | over 300 fold | – | – | – | – | – | – | – | – | – | – | – | – | – | – | – | – | – | – |
| O=S(=O)(c1ccccc1)N(CC(F)(F)F)c1ccc(C(O)(C(F)(F)F)C(F)(F)F)cc1 [T0901317 1] | – | enhance | inhibit | 61% | 23 fold | significantly elevated | upregulated | elevated levels | – | – | – | – | – | – | – | – | – | – | – |
| O=C(O)Cc1cccc(OCCCN(Cc2cccc(C(F)(F)F)c2Cl)CC(c2ccccc2)c2ccccc2)c1 [GW3965 2, 3-[3-[N-(2-Chloro-3-trifluoromethylbenzyl)-(2,2-diphenylethyl)amino]propyloxy] phenylacetic acid hydrochloride] | – | enhance | inhibit | 67% | 31 fold | significantly elevated | upregulated | elevated levels | completely ineffective | had no effect | blocked | 80% | roughly 50% | more than 50 fold | significantly prolonged | significant reduction | suppressed | 28 fold | decreased |

Source: US10543183B2, “Treatment and diagnosis of melanoma” (The Rockefeller University, priority 2012, dated 2020)
